Results on 17 molecules are retold here after patent publication US7504420B2, “Compounds which inhibit beta-secretase activity and methods of use” (CoMentis, Inc., priority 2005, dated 2009).

One assay concerns the target T1, memapsin 1 (Homo sapiens, UniProt Q9Y5Z0).
T1 sequence (Q9Y5Z0 63-518): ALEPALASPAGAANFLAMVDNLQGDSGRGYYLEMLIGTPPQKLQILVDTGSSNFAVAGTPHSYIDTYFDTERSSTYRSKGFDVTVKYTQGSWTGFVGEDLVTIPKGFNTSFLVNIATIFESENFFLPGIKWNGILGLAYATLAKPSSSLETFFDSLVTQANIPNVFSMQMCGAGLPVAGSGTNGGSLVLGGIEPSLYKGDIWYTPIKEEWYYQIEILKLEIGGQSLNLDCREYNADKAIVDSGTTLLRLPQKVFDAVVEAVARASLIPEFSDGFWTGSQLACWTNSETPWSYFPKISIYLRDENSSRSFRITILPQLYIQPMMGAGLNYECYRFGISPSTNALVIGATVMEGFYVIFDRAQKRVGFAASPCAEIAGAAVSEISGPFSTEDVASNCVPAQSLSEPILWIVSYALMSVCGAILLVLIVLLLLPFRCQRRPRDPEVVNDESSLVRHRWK
Put plainly: Inhibition of memapsin 1 catalytic activity (Ki). Format: biochemical. The note with it: memapsin 1, pH 4.0, 37° C.; read-out: M1K. As for the experimental part: A substrate peptide NH3-ELDLAVEFWHDR-CO2 (SEQ ID NO.:1) (used for inhibition assay of memapsin 2, memapsin 1, and cathepsin D) was dissolved at 2 mg/ml in DMSO and diluted 1:100 in 0.1 M sodium acetate, pH 4.0 just prior to assay. Inhibitor dissolved in DMSO was diluted into 0.1 M sodium acetate, pH 4.0 (1:100 dilution). A […] aliquot of the inhibitor solution in pH 4 buffer was combined with […] of 0.1 M sodium acetate containing 100-200 nM of memapsin 1, memapsin 2, or cathepsin D. Following a pre-incubation at 37° C., the proteolytic assay was initated by addition of […] of the substrate diluted into pH 4 buffer, and incubation continued at 37° C. Aliquots were removed at time intervals, and combined with an equal volume of MALDI-TOF matrix (α-hydroxycinnamic acid in acetone, 20 mg/ml) and immediately spotted in duplicate onto a stainless-steel MALDI sample plate. MALDI-TOF mass spectrometry was performed on a PE Biosystems Voyager DE instrument at the Molecular Biology Resource Center on campus. The instrument was operated at 25,000 accelerating volts in positive mode with a 150 ns delay. Ions with a mass-to-charge ratio (m/z) were detected in the range of 650-2000 atomic mass units. Data were analyzed by the Voyager Data Explorer module to obtain ion intensity data for mass species of substrates and corresponding products in a given mixture. Relative product formation was calculated as the ratio of signal intensity of the product to the sum of signal intensities of both product and the corresponding substrate. Relative product formed per unit time was obtained from non-linear regression analysis of the data representing the initial 15% formation of product using the model: 1−e^−kT, where k was the relative hydrolytic rate constant and T was time in seconds. Alternatively, relative hydrolytic rates were determined using a fluorogenic cleavage assay (Ermolieff, J. et al., Biochemistry, 39: 12450-12456 (2000)). Initial rates from either method were expressed relative to uninhibited controls and the inhibition constant Ki was determined by a non-linear fit to a tight-binding model of competitive inhibition (Bieth, J., Bayer-Symposium V: Proteinase Inhibitors, pp 463-469, Spinger-Varlag, Berlin (1994)). Results are shown in Table 1 above (M2K, CDK, and M1K columns represent, respectively, the K1 values obtained for memapsin 2, cathepsin D and memapsin 1).

The next assay concerns the target memapsin 2 (Homo sapiens, UniProt P56817). Put plainly: Inhibition of memapsin 2 catalytic activity (Ki). As to conditions: memapsin 2, pH 4, 37° C.; read-out: M2K. It is filed as biochemical. The essentials:
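Run at 37 °C and pH 4: compound and enzyme pre-incubated 20 min before FS-2 fluorogenic substrate started hydrolysis,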

Assay [1] concerns Aβ production in Chinese hamster ovary cells that over-express human APP695 with the London and Swedish mutations. Briefly: Cellular Aβ IC50 determination (Aβ40 sandwich ELISA). As to conditions: Cricetulus griseus, CHO, 24 h, read-out: Cell, Aβ40, CHO cells over-expressing human APP695 (London and Swedish mutations), 24 h.
For a further assay, the target named is cathepsin D (Homo sapiens, UniProt P07339). Put plainly: Inhibition of cathepsin D catalytic activity (Ki). Format: biochemical. The note with it: pH 4.0, 37° C., read-out: CDK.

Each structure is given as a SMILES string.

Chain of memapsin 2 (P56817 46-501): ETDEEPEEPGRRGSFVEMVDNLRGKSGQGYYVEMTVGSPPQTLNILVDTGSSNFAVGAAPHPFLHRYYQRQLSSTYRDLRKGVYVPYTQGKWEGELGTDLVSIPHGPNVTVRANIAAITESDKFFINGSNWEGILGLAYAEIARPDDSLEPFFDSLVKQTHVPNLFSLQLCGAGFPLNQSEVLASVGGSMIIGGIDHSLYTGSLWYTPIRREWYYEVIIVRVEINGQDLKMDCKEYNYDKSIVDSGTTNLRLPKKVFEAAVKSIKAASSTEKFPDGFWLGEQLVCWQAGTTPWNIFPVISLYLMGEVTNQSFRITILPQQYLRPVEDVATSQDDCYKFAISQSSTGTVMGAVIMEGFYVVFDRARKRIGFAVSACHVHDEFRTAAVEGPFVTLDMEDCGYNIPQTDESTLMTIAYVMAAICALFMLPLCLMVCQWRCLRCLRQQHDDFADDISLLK
Chain of cathepsin D (P07339 65-412, species assumed): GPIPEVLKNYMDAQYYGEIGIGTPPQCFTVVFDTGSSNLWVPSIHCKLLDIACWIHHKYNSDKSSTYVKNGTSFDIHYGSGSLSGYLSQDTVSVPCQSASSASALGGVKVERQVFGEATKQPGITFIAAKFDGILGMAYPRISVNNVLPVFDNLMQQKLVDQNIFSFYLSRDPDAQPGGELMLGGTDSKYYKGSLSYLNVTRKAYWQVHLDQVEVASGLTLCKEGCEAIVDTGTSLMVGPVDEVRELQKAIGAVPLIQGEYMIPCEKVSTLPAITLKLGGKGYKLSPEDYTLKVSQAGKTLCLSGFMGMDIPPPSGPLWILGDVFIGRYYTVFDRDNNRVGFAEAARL

With `COc1cccc(CNCC(O)C(Cc2ccccc2)NC(=O)c2cc(C(=O)NC(C)c3cccc(OC)c3)cc(N(C)S(C)(=O)=O)c2)c1` (stereo not shown) [N1-(3-hydroxy-4-(3-methoxybenzylamino)-1-phenylbutan-2-yl)-N3-(1-(3-methoxyphenyl)ethyl)-5-(N-methylmethylsulfonamido)isophthalamide], the Ki at memapsin 1 is over 501 nM; at memapsin 2 it was under 300 nM. The IC50 in assay [1] is under 1000 nM.
For the molecule `COc1cccc(CNCC(O)C(CC(C)C)NC(=O)c2cc(C(=O)NC(C)c3ccccc3)cc(N(C)S(C)(=O)=O)c2)c1` (stereo not shown) [N1-(2-hydroxy-1-(3-methoxybenzylamino)-5-methylhexan-3-yl)-5-(N-methylmethylsulfonamido)-N3-(1-phenylethyl)isophthalamide], the Ki at memapsin 1 and at memapsin 2 was over 501 nM in each case.
`CC(C)Oc1cncc(CNCC(O)C(Cc2ccccc2)NC(=O)c2cc(C(=O)NC(C)c3ccccc3)cc(N(C)S(C)(=O)=O)c2)c1` (stereo not shown) [N1-(3-hydroxy-4-((5-isopropoxypyridin-3-yl)methylamino)-1-phenylbutan-2-yl)-5-(N-methylmethylsulfonamido)-N3-(1-phenylethyl)isophthalamide]: the Ki at memapsin 2 and on cathepsin D was under 300 nM in each case. The IC50 in assay [1] was under 1000 nM.
For `COc1cccc(CNCC(O)C(Cc2ccccc2)NC(=O)c2cc(C(=O)NC(C)c3nc(CO)co3)cc(N(C)S(C)(=O)=O)c2)c1` (stereo not shown) [N1-(3-hydroxy-4-(3-methoxybenzylamino)-1-phenylbutan-2-yl)-N3-(1-(4-(hydroxymethyl)oxazol-2-yl)ethyl)-5-(N-methylmethylsulfonamido)isophthalamide], the Ki on memapsin 2 was under 300 nM; on cathepsin D, over 501 nM. Also, the IC50 in assay [1] is under 1000 nM.
Take `COCc1cccc(CNCC(O)C(Cc2ccccc2)NC(=O)c2cc(C(=O)NC(C)c3ccccc3)cc(N(C)S(C)(=O)=O)c2)c1` (stereo not shown) [N1-(3-hydroxy-4-(3-(methoxymethyl)benzylamino)-1-phenylbutan-2-yl)-5-(N-methylmethylsulfonamido)-N3-(1-phenylethyl)isophthalamide]: at memapsin 1, the Ki is over 501 nM. The IC50 in assay [1] is over 5000 nM.
Take `CC(C)c1cccc(CNCC(O)C(Cc2ccccc2)NC(=O)c2cc(C(=O)NC(C)c3ccccc3)cc(N(C)S(C)(=O)=O)c2)c1` (stereo not shown) [N1-(3-hydroxy-4-(3-isopropylbenzylamino)-1-phenylbutan-2-yl)-5-(N-methylmethylsulfonamido)-N3-(1-phenylethyl)isophthalamide]: the Ki on memapsin 2 and at cathepsin D was under 300 nM each time. For the same molecule, in assay [1], the IC50 is under 1000 nM.
Take `COc1cccc(CNCC(O)C(Cc2ccccc2)NC(=O)c2cc(C(=O)NC(C)C3CCCCC3)cc(N(C)S(C)(=O)=O)c2)c1` (stereo not shown) [N1-(1-cyclohexylethyl)-N3-(3-hydroxy-4-(3-methoxybenzylamino)-1-phenylbutan-2-yl)-5-(N-methylmethylsulfonamido)isophthalamide]: the Ki on memapsin 2 and on cathepsin D was under 300 nM in each case. In addition, in assay [1], the IC50 is under 1000 nM.
In the case of `CC(NC(=O)c1cc(C(=O)NC(Cc2ccccc2)C(O)CNC(C)C2CCCCC2)cc(N(C)S(C)(=O)=O)c1)c1ccccc1` (stereo not shown) [N1-(4-(1-cyclohexylethylamino)-3-hydroxy-1-phenylbutan-2-yl)-5-(N-methylmethylsulfonamido)-N3-(1-phenylethyl)isophthalamide], the Ki at memapsin 2 and at cathepsin D was under 300 nM in each case. The IC50 in assay [1] was under 1000 nM.
For `COc1cccc(CNCC(O)C(Cc2ccccc2)NC(=O)c2cccc(C(=O)N(C)C(C)c3nc(C)cs3)c2)c1` (stereo not shown) [N1-(3-hydroxy-4-(3-methoxybenzylamino)-1-phenylbutan-2-yl)-N3-methyl-N3-(1-(4-methylthiazol-2-yl)ethyl)isophthalamide], the Ki at memapsin 2 and at cathepsin D was under 300 nM throughout. The IC50 in assay [1] was under 1000 nM.
For the molecule `CC(NC(=O)c1cc(C(=O)NC(Cc2ccccc2)C(O)CNCC2CCNCC2)cc(N(C)S(C)(=O)=O)c1)c1ccccc1` (stereo not shown) [N1-(3-hydroxy-1-phenyl-4-(piperidin-4-ylmethylamino)butan-2-yl)-5-(N-methylmethylsulfonamido)-N3-(1-phenylethyl)isophthalamide], the Ki on memapsin 2 and at cathepsin D was over 501 nM in each case. Further, in assay [1], the IC50 is over 5000 nM.
For `CC(NC(=O)c1cc(C(=O)NC(Cc2ccccc2)C(O)CNCc2cccc(N(C)C)c2)cc(N(C)S(C)(=O)=O)c1)c1ccccc1` (stereo not shown) [N1-(4-(3-(dimethylamino)benzylamino)-3-hydroxy-1-phenylbutan-2-yl)-5-(N-methylmethylsulfonamido)-N3-(1-phenylethyl)isophthalamide], the Ki on memapsin 2 is under 300 nM; at cathepsin D, over 501 nM. Moreover, in assay [1], the IC50 was under 1000 nM.
For `CC(C)Cc1cccc(CNCC(O)C(Cc2ccccc2)NC(=O)c2cc(C(=O)NC(C)c3ccccc3)cc(N(C)S(C)(=O)=O)c2)c1` (stereo not shown) [N1-(3-hydroxy-4-(3-isobutylbenzylamino)-1-phenylbutan-2-yl)-5-(N-methylmethylsulfonamido)-N3-(1-phenylethyl)isophthalamide], in that order: under 300 nM, under 300 nM and under 1000 nM.
In the case of `COc1ccccc1CCNCC(O)C(Cc1ccccc1)NC(=O)c1cc(C(=O)NC(C)c2ccccc2)cc(N(C)S(C)(=O)=O)c1` (stereo not shown) [N1-(3-hydroxy-4-(2-methoxyphenethylamino)-1-phenylbutan-2-yl)-5-(N-methylmethylsulfonamido)-N3-(1-phenylethyl)isophthalamide], the Ki on memapsin 2 and on cathepsin D was under 300 nM in each case. For the same molecule, the IC50 in assay [1] lay within 1000 to 5000 nM.
Turning to `CC(NC(=O)c1cc(C(=O)NC(Cc2ccccc2)C(O)CNCc2nc3ccccc3[nH]2)cc(N(C)S(C)(=O)=O)c1)c1ccccc1` (stereo not shown) [N1-(4-((1H-benzo[d]imidazol-2-yl)methylamino)-3-hydroxy-1-phenylbutan-2-yl)-5-(N-methylmethylsulfonamido)-N3-(1-phenylethyl)isophthalamide], the Ki at memapsin 2 and on cathepsin D was under 300 nM throughout. Moreover, the IC50 in assay [1] was in the range of 1000 to 5000 nM.
As to `CCc1cncc(CNCC(O)C(Cc2ccccc2)NC(=O)c2cccc(C(=O)N(C)Cc3nc(C)cs3)c2)c1` (stereo not shown) [N1-(4-((5-ethylpyridin-3-yl)methylamino)-3-hydroxy-1-phenylbutan-2-yl)-N3-methyl-N3-((4-methylthiazol-2-yl)methyl)isophthalamide], the Ki on memapsin 2 and on cathepsin D was under 300 nM throughout. Also, in assay [1], the IC50 was under 1000 nM.
Turning to `Cc1csc(CN(C)C(=O)c2cccc(C(=O)NC(Cc3ccccc3)C(O)CNCc3cccc(C(C)C)c3)c2)n1` (stereo not shown) [N1-(3-hydroxy-4-(3-isopropylbenzylamino)-1-phenylbutan-2-yl)-N3-methyl-N3-((4-methylthiazol-2-yl)methyl)isophthalamide], the Ki on memapsin 2 and at cathepsin D was under 300 nM in each case. In assay [1], the IC50 was under 1000 nM.
In the case of `COc1cccc(C(C)NCC(O)C(Cc2ccccc2)NC(=O)c2cc(C(=O)NC(C)c3cccc(OC)c3)cc(N(C)S(C)(=O)=O)c2)c1` (stereo not shown) [N1-(3-hydroxy-4-(1-(3-methoxyphenyl)ethylamino)-1-phenylbutan-2-yl)-N3-(1-(3-methoxyphenyl)ethyl)-5-(N-methylmethylsulfonamido)isophthalamide], the Ki on memapsin 2 and at cathepsin D was under 300 nM throughout. Further, the IC50 in assay [1] is under 1000 nM.
